The numbers were not newly measured in patent US11213604B2, “Composition for dressing cutaneous lesions and manufacturing method thereof” (priority 2016, dated 2022), which cites them from elsewhere.

The subject of this data set is cutaneous leishmanial ulcers. To be noted: protocols (1), (3), (2) of Stahl et al., BMC Infectious Diseases 2014.

As for sodium stilbogluconate, the Median healing time is recorded as 9 weeks.
